Measured values taken from US20250263436A1, “BROAD-SPECTRUM ANTIVIRAL DRUG FOR ENTEROVIRUS, AND APPLICATION” (WUHAN INSTITUTE OF VIROLOGY, CHINESE ACADEMY OF SCIENCES, priority 2020, published 2025).
pIC50: −log10 of the molar value. “And” between values parts separate entries of the source, which are not always exact repeats. Equal entries are not always repeated.

How the values were obtained:
Type in all cases: cell-based
[1] = Cytotoxicity of polypeptides in Vero cells (CCK-8); conditions: Vero cells, 24 h
Experimental: (§1) Therefore, this standard was testified by cytotoxicity assay, and the cells without any treatment were used as a control group.
(§2) (1) Vero cells were plated in a 96-well plate at 100 μL per well.
(§3) (2) When the cells grew to a confluence of 70%-80%, the DMEM medium containing 10% serum was replaced with a DMEM medium containing 2% serum, and a certain concentration gradient of polypeptide RQ or LQ or SQ was added, so that the final concentrations of the polypeptide in the wells were 0.073242 μM, 0.146484 μM, 0.292969 μM, 0.585938 μM, 1.171875 μM, 2.34375 μM, 4.6875 μM, 9.375 μM, 18.75 μM, 37.5 μM, 75 μM and 150 μM, respectively.
(§4) (3) The samples were collected 24 h after the addition of the polypeptide, and then 10 μL of live cell detection reagent CCK-8 was added to each well and mixed well.
(§5) (4) The plate was placed at 37° C. for 2 h.
(§6) (5) The absorbance value at OD450 was detected by a microplate reader.
(§7) The CC50 of each polypeptide was calculated taking the cell viability of untreated cells as 100%.

Vero cells = assay: Cytotoxicity of polypeptides in Vero cells (CCK-8); conditions: Vero cells, 24 h
Experimental: as §1, §2, §3, §4, §5, §6, §7

CVA16 = assay: Inhibition of CVA16 in RD cells (viral RNA, qRT-PCR); conditions: anti-CVA16 in RD cells
Experimental: (§8) (1) RD cells were plated in a 24-well plate.
(2) When the cells grew to a confluence of 70%-80%, the DMEM medium containing 10% serum was replaced with a DMEM medium containing 2% serum (the DMEM medium containing 2% serum was added in each well at an amount of 0.5 mL), and 5 μL of CVA16 virus of 1×10^6 PFU/mL was added to each well.
(3) After 1 h, different polypeptides with final concentrations of 0.3125 μM, 0.625 μM, 1.25 μM, 2.5 μM, and 5 μM were added respectively. The group without polypeptide added was used as a control.
(4) The samples were collected 24 h after the infection of CVA16 virus, and RNA was extracted with the total RNA extraction kit.
(§9) (5) The supernatant was discarded, then 350 μL of TRK lysate was added to each well, and the plate was put on a shaker for 5 min.
(§10) (6) 350 μL of 70% ethanol (DEPC) was added to each well, and then the plate was put on a shaker for 5 min.
(§11) (7) The solution in each well was transferred to a RNA extraction column for 1 min of centrifugation at 12000 g.
(§12) (8) The solution obtained in the recovery tube was reloaded on the column again for 1 min of centrifugation at 12000 g.
(§13) (9) RNA washing buffer 1 was added in the column for 30 s of centrifugation at 12000 g. […]
(14) 2 μL of RNA sample was subjected to a fluorescence quantitative experiment using the one step qRT-PCR kit.

CVB3 = assay: Inhibition of CVB3 in RD cells (viral RNA, qRT-PCR); conditions: inhibiting CVB3 in RD cells
Experimental: as §8
(2) When the cells grew to a confluence of 70%-80%, the DMEM medium containing 10% serum was replaced with a DMEM medium containing 2% serum (the DMEM medium containing 2% serum was added in each well at an amount of 0.5 mL), and 5 μL of CVB3 virus of 1×10^6 PFU/mL was added to each well.
(§14) (3) After 1 h, the polypeptides with final concentrations of 0.3125 μM, 0.625 μM, 1.25 μM, 2.5 μM, and 5 μM were added respectively. The group without polypeptide added was used as a control.
(4) The samples were collected 24 h after the infection of CVB3 virus, and RNA was extracted with the total RNA extraction kit.
as §9, §10, §11, §12, §13
(§15) (14) 2 μL of RNA sample was subjected to a fluorescence quantitative experiment using the one step qRT-PCR kit. […]

Echo 11 = assay: Inhibition of Echo 11 in RD cells (viral RNA, qRT-PCR); conditions: inhibiting Echo 11 in RD cells
Experimental: as §8
(2) When the cells grew to a confluence of 70%-80%, the DMEM medium containing 10% serum was replaced with a DMEM medium containing 2% serum (the DMEM medium containing 2% serum was added in each well at an amount of 0.5 mL), and 5 μL of Echo 11 virus of 1×10^6 PFU/mL was added to each well.
as §14
(4) The samples were collected 24 h after the infection of Echo 11 virus, and RNA was extracted with the total RNA extraction kit.
as §9, §10, §11, §12, §13, §15

Work on `CC[C@H](C)[C@H](NC(=O)[C@H](C)NC(=O)[C@H](CO)NC(=O)[C@H](CCCNC(=N)N)NC(=O)[C@H](CC(N)=O)NC(=O)[C@H](CC(N)=O)NC(=O)[C@H](Cc1ccc(O)cc1)NC(=O)[C@H](CCC(=O)O)NC(=O)[C@H](CCCNC(=N)N)NC(=O)CNC(=O)[C@H](CO)NC(=O)CNC(=O)[C@H](CCCNC(=N)N)NC(=O)[C@H](CCCNC(=N)N)NC(=O)[C@H](CCCNC(=N)N)NC(=O)[C@H](CCC(N)=O)NC(=O)[C@H](CCCNC(=N)N)NC(=O)[C@H](CCCNC(=N)N)NC(=O)[C@H](CCCCN)NC(=O)[C@H](CCCCN)NC(=O)[C@H](CCCNC(=N)N)NC(=O)CNC(=O)[C@@H](N)Cc1ccc(O)cc1)C(=O)NCC(=O)N[C@@H](CC(N)=O)C(=O)N[C@H](C(=O)N[C@H](C(=O)N[C@@H](CCC(=O)O)C(=O)N[C@@H](C)C(=O)N[C@@H](CC(C)C)C(=O)N[C@@H](Cc1ccccc1)C(=O)N[C@@H](CCC(N)=O)C(=O)O)[C@@H](C)CC)[C@@H](C)O` [RQ] yielded a CC50 at 24 h ([1]; African green monkey, CCK-8) greater than 150 µM, a viability at 24 h, 0.073242 µM ([1]; polypeptide 0.073242 μM, read-out: Cell viability (%)) of 101% and a viability at 24 h, 0.146484 µM ([1]; polypeptide 0.146484 μM, read-out: Cell viability (%)) of 93.8%. It also gave a viability at 24 h, 0.292969 µM ([1]; polypeptide 0.292969 μM, read-out: Cell viability (%)) of 92.7%, a viability at 24 h, 0.585938 µM ([1]; polypeptide 0.585938 μM, read-out: Cell viability (%)) of 92.2% and a viability at 24 h, 1.17188 µM ([1]; polypeptide 1.171875 μM, read-out: Cell viability (%)) of 116%. It also gave a viability at 24 h, 2.34375 µM ([1]; polypeptide 2.34375 μM, read-out: Cell viability (%)) of 116%, a viability at 24 h, 4.6875 µM ([1]; polypeptide 4.6875 μM, read-out: Cell viability (%)) of 113% and a viability at 24 h, 9.375 µM ([1]; polypeptide 9.375 μM, read-out: Cell viability (%)) of 118%. For the same compound, the viability at 24 h, 18.75 µM ([1]; polypeptide 18.75 μM, read-out: Cell viability (%)) was 111%, the viability at 24 h, 37.5 µM ([1]; polypeptide 37.5 μM, read-out: Cell viability (%)) was 106% and the viability at 24 h, 75 µM ([1]; polypeptide 75 μM, read-out: Cell viability (%)) was 110%. For the same compound, the viability at 24 h, 150 µM ([1]; polypeptide 150 μM, read-out: Cell viability (%)) was 108%, the “Cell viability (%)” value (Vero cells; polypeptide 0.073242 μM) was 110.2362% and 105.9618% and the “Cell viability (%)” value (Vero cells; polypeptide 0.146484 μM) was 99.1% and 98.99%. For the same compound, the “Cell viability (%)” value (Vero cells; polypeptide 0.292969 μM) was 106.7492%, the “Cell viability (%)” value (Vero cells; polypeptide 0.585938 μM) was 91.56% and 90.78% and the “Cell viability (%)” value (Vero cells; polypeptide 1.171875 μM) was 115.2981% and 115.5231%. For the same compound, the “Cell viability (%)” value (Vero cells; polypeptide 2.34375 μM) was 111.0236% and 119.1226%, the “Cell viability (%)” value (Vero cells; polypeptide 4.6875 μM) was 109.7863% and 118.7852% and the “Cell viability (%)” value (Vero cells; polypeptide 9.375 μM) was 109.3363% and 99.1%. For the same compound, the “Cell viability (%)” value (Vero cells; polypeptide 18.75 μM) was 115.4106% and 105.7368%, the “Cell viability (%)” value (Vero cells; polypeptide 37.5 μM) was 108.5489% and the “Cell viability (%)” value (Vero cells; polypeptide 75 μM) was 127.5591% and 120.5849%. For the same compound, the “Cell viability (%)” value (Vero cells; polypeptide 150 μM) was 103.5996% and 100.1125%, the pIC50 (CVA16) was 5.67 and the pIC50 (CVB3) was 5.64. The pIC50 (Echo 11) was 6.43.
